3 compounds from the NIST ThermoML archive (doi:10.1021/je5001389) can be followed below.

A short description of series [1]: Molar enthalpy of transition or fusion. As to conditions: DSC.
For series [2] the following is noted: DTA.

± gives the expanded uncertainty stated by the source.

As for `c1ccc(-c2ccccc2)cc1` [biphenyl], the “Molar enthalpy of transition or fusion” value in series [1] (Crystal) worked out at 4.45 ± 0.136 kcal/mol. In addition, the Triple point temperature in series [2] (Crystal) is 340.69 ± 0.5 K.
The like results for `c1ccc2c(c1)oc1ccccc12` [dibenzo[bd]furan] were, in that order, 5.33 ± 0.16 kcal/mol and 353.87 ± 0.5 K.
Take `CCCCCCCCCCCCCCCCCCCCCCCCCC` [hexacosane]: the “Molar enthalpy of transition or fusion” value in series [1] (Crystal 1) was found to be 16.3 ± 0.43 kcal/mol; in series [1] (Crystal 2), 8.78 ± 0.239 kcal/mol. Besides, the figures for the Triple point temperature in series [2] (Crystal 1) and in series [2] (Crystal 2) were 329.21 ± 0.5 K and 326.4 ± 0.5 K, respectively.
